Results taken from ChEMBL document CHEMBL1147101, “Development and persistence of antimicrobial resistance in Pseudomonas aeruginosa: a longitudinal observation in mechanically ventilated patients” (Antimicrob Agents Chemother, 2007).
The source made the active and inactive calls. No cut-off for these calls is given here.

Assays:
Format in all cases: functional, organism-based
Settings in all cases: Trachea
[1] = system: Pseudomonas aeruginosa; assay: Antimicrobial activity against Pseudomonas aeruginosa IA5 tracheal isolates from mechanically ventilated tuberculosis patient
[2] = system: Pseudomonas aeruginosa; assay: Antimicrobial activity against Pseudomonas aeruginosa 65.36-4 tracheal isolates from mechanically ventilated tuberculosis patient
[3] = system: Pseudomonas aeruginosa; assay: Antimicrobial activity against Pseudomonas aeruginosa 13D6 tracheal isolates from mechanically ventilated chronic respiratory insufficiency patient
[4] = system: Pseudomonas aeruginosa; assay: Antimicrobial activity against Pseudomonas aeruginosa 19C2 tracheal isolates from mechanically ventilated chronic respiratory insufficiency patient
[5] = system: Pseudomonas aeruginosa; assay: Antimicrobial activity against Pseudomonas aeruginosa 19B1 tracheal isolates from mechanically ventilated chronic respiratory insufficiency patient
[6] = system: Pseudomonas aeruginosa; assay: Antimicrobial activity against Pseudomonas aeruginosa 2B5 tracheal isolates from mechanically ventilated tuberculosis patient
[7] = system: Pseudomonas aeruginosa; assay: Antimicrobial activity against Pseudomonas aeruginosa 8A12 tracheal isolates from mechanically ventilated chronic respiratory insufficiency patient
[8] = system: Pseudomonas aeruginosa; assay: Antimicrobial activity against Pseudomonas aeruginosa 10A9 tracheal isolates from mechanically ventilated chronic respiratory insufficiency patient
[9] = system: Pseudomonas aeruginosa; assay: Antimicrobial activity against Pseudomonas aeruginosa 24G1 tracheal isolates from mechanically ventilated chronic respiratory insufficiency patient
[10] = system: Pseudomonas aeruginosa; assay: Antimicrobial activity against Pseudomonas aeruginosa 65.18-4 tracheal isolates from mechanically ventilated tuberculosis patient
[11] = system: Pseudomonas aeruginosa; assay: Antimicrobial activity against Pseudomonas aeruginosa 2A5 tracheal isolates from mechanically ventilated chronic respiratory insufficiency patient
[12] = system: Pseudomonas aeruginosa; assay: Antimicrobial activity against Pseudomonas aeruginosa 2A6 tracheal isolates from mechanically ventilated tuberculosis patient
[13] = system: Pseudomonas aeruginosa; assay: Antimicrobial activity against Pseudomonas aeruginosa 9A10 tracheal isolates from mechanically ventilated chronic respiratory insufficiency patient
[14] = system: Pseudomonas aeruginosa; assay: Antimicrobial activity against Pseudomonas aeruginosa 9A1 tracheal isolates from mechanically ventilated chronic respiratory insufficiency patient
[15] = system: Pseudomonas aeruginosa; assay: Antimicrobial activity against Pseudomonas aeruginosa 24E6 tracheal isolates from mechanically ventilated chronic respiratory insufficiency patient
[16] = system: Pseudomonas aeruginosa; assay: Antimicrobial activity against Pseudomonas aeruginosa IC7 tracheal isolates from mechanically ventilated tuberculosis patient
[17] = system: Pseudomonas aeruginosa; assay: Antimicrobial activity against Pseudomonas aeruginosa 19D10 tracheal isolates from mechanically ventilated chronic respiratory insufficiency patient
[18] = system: Pseudomonas aeruginosa; assay: Antimicrobial activity against Pseudomonas aeruginosa 19E1 tracheal isolates from mechanically ventilated chronic respiratory insufficiency patient
[19] = system: Pseudomonas aeruginosa; assay: Antimicrobial activity against Pseudomonas aeruginosa 19F1 tracheal isolates from mechanically ventilated chronic respiratory insufficiency patient
[20] = system: Pseudomonas aeruginosa; assay: Antimicrobial activity against Pseudomonas aeruginosa 19E12 tracheal isolates from mechanically ventilated chronic respiratory insufficiency patient
[21] = system: Pseudomonas aeruginosa; assay: Antimicrobial activity against Pseudomonas aeruginosa 9A7 tracheal isolates from mechanically ventilated chronic respiratory insufficiency patient
[22] = system: Pseudomonas aeruginosa; assay: Antimicrobial activity against Pseudomonas aeruginosa 19C12 tracheal isolates from mechanically ventilated chronic respiratory insufficiency patient
[23] = system: Pseudomonas aeruginosa; assay: Antimicrobial activity against Pseudomonas aeruginosa 24D1 tracheal isolates from mechanically ventilated chronic respiratory insufficiency patient
[24] = system: Pseudomonas aeruginosa; assay: Antimicrobial activity against Pseudomonas aeruginosa 9A3 tracheal isolates from mechanically ventilated chronic respiratory insufficiency patient
[25] = system: Pseudomonas aeruginosa; assay: Antimicrobial activity against Pseudomonas aeruginosa 24D5 tracheal isolates from mechanically ventilated chronic respiratory insufficiency patient
[26] = system: Pseudomonas aeruginosa; assay: Antimicrobial activity against Pseudomonas aeruginosa 13D3 tracheal isolates from mechanically ventilated chronic respiratory insufficiency patient
[27] = system: Pseudomonas aeruginosa; assay: Antimicrobial activity against Pseudomonas aeruginosa 29F6 tracheal isolates from mechanically ventilated chronic respiratory insufficiency patient
[28] = system: Pseudomonas aeruginosa; assay: Antimicrobial activity against Pseudomonas aeruginosa 24F4 tracheal isolates from mechanically ventilated chronic respiratory insufficiency patient
[29] = system: Pseudomonas aeruginosa; assay: Antimicrobial activity against Pseudomonas aeruginosa 15G10 tracheal isolates from mechanically ventilated chronic respiratory insufficiency patient
[30] = system: Pseudomonas aeruginosa; assay: Antimicrobial activity against Pseudomonas aeruginosa 9B2 tracheal isolates from mechanically ventilated chronic respiratory insufficiency patient
[31] = system: Pseudomonas aeruginosa; assay: Antimicrobial activity against Pseudomonas aeruginosa 10A6 tracheal isolates from mechanically ventilated chronic respiratory insufficiency patient
[32] = system: Pseudomonas aeruginosa; assay: Antimicrobial activity against Pseudomonas aeruginosa 65.18-1 tracheal isolates from mechanically ventilated tuberculosis patient
[33] = system: Pseudomonas aeruginosa; assay: Antimicrobial activity against Pseudomonas aeruginosa 24E1 tracheal isolates from mechanically ventilated chronic respiratory insufficiency patient
[34] = system: Pseudomonas aeruginosa; assay: Antimicrobial activity against Pseudomonas aeruginosa 16D2 tracheal isolates from mechanically ventilated chronic respiratory insufficiency patient
[35] = system: Pseudomonas aeruginosa; assay: Antimicrobial activity against Pseudomonas aeruginosa 23C5 tracheal isolates from mechanically ventilated chronic respiratory insufficiency patient
[36] = system: Pseudomonas aeruginosa; assay: Antimicrobial activity against Pseudomonas aeruginosa 8C4 tracheal isolates from mechanically ventilated chronic respiratory insufficiency patient
[37] = system: Pseudomonas aeruginosa; assay: Antimicrobial activity against Pseudomonas aeruginosa 24E2 tracheal isolates from mechanically ventilated chronic respiratory insufficiency patient
[38] = system: Pseudomonas aeruginosa; assay: Antimicrobial activity against Pseudomonas aeruginosa 65.18-2 tracheal isolates from mechanically ventilated tuberculosis patient
[39] = system: Pseudomonas aeruginosa; assay: Antimicrobial activity against Pseudomonas aeruginosa 5G3 tracheal isolates from mechanically ventilated chronic respiratory insufficiency patient
[40] = system: Pseudomonas aeruginosa; assay: Antimicrobial activity against Pseudomonas aeruginosa 65.18-3 tracheal isolates from mechanically ventilated tuberculosis patient
[41] = system: Pseudomonas aeruginosa; assay: Antimicrobial activity against Pseudomonas aeruginosa 19F2 tracheal isolates from mechanically ventilated chronic respiratory insufficiency patient
[42] = system: Pseudomonas aeruginosa; assay: Antimicrobial activity against Pseudomonas aeruginosa 5F2 tracheal isolates from mechanically ventilated chronic respiratory insufficiency patient
[43] = system: Pseudomonas aeruginosa; assay: Antimicrobial activity against Pseudomonas aeruginosa 65.33-3 tracheal isolates from mechanically ventilated tuberculosis patient
[44] = system: Pseudomonas aeruginosa; assay: Antimicrobial activity against Pseudomonas aeruginosa 65.38-4 tracheal isolates from mechanically ventilated tuberculosis patient
[45] = system: Pseudomonas aeruginosa; assay: Antimicrobial activity against Pseudomonas aeruginosa 19C5 tracheal isolates from mechanically ventilated chronic respiratory insufficiency patient
[46] = system: Pseudomonas aeruginosa; assay: Antimicrobial activity against Pseudomonas aeruginosa 29H1 tracheal isolates from mechanically ventilated chronic respiratory insufficiency patient
[47] = system: Pseudomonas aeruginosa; assay: Antimicrobial activity against Pseudomonas aeruginosa 65.38-2 tracheal isolates from mechanically ventilated tuberculosis patient
[48] = system: Pseudomonas aeruginosa; assay: Antimicrobial activity against Pseudomonas aeruginosa 2A1 tracheal isolates from mechanically ventilated tuberculosis patient

Compound: CC(C)(O/N=C(\C(=O)N[C@@H]1C(=O)N2C(C(=O)[O-])=C(C[n+]3ccccc3)CS[C@H]12)c1csc(N)n1)C(=O)O
- Activity [1]: Active
- Activity [2]: inactive
- Activity [3]: Active
- Activity [4]: Active
- Activity [5]: Active
- Activity [6]: Active
- Activity [7]: Active
- Activity [8]: Active
- Activity [9]: Active
- Activity [10]: Active
- Activity [11]: Active
- Activity [12]: inactive
- Activity [13]: Active
- Activity [14]: Active
- Activity [15]: Active
- Activity [16]: Active
- Activity [17]: Active
- Activity [18]: Active
- Antimicrobial activity [19]: Active
- Activity [20]: Active
- Activity [21]: Active
- Activity [22]: Active
- Activity [23]: Active
- Activity [24]: Active
- Activity [25]: Active
- Activity [26]: Active
- Activity [27]: Active
- Activity [28]: Active
- Activity [29]: Active
- Activity [30]: Active
- Activity [31]: Active
- Activity [32]: Active
- Activity [33]: Active
- Activity [34]: Active
- Activity [35]: Active
- Activity [36]: Active
- Activity [37]: Active
- Activity [38]: Active
- Activity [39]: Active
- Activity [40]: Active
- Activity [41]: Active
- Activity [42]: Active

Compound: GENTAMICIN
- Activity [2]: inactive
- Activity [3]: Active
- Activity [43]: inactive
- Activity [4]: Active
- Activity [5]: Active
- Activity [7]: Active
- Activity [8]: Active
- Activity [9]: Active
- Activity [11]: Active
- Activity [12]: inactive
- Activity [13]: Active
- Activity [44]: inactive
- Activity [14]: Active
- Activity [15]: Active
- Activity [17]: Active
- Activity [18]: Active
- Antimicrobial activity [19]: Active
- Activity [20]: Active
- Activity [21]: Active
- Activity [22]: Active
- Activity [24]: Active
- Activity [25]: Active
- Activity [26]: Active
- Activity [27]: Active
- Activity [29]: Active
- Activity [45]: Active
- Activity [30]: Active
- Activity [46]: Active
- Activity [31]: Active
- Activity [33]: Active
- Activity [34]: Active
- Activity [35]: Active
- Activity [36]: Active
- Activity [37]: Active
- Activity [39]: Active
- Activity [41]: Active
- Activity [42]: Active
- Activity [47]: inactive

Compound: NCC[C@H](O)C(=O)N[C@@H]1C[C@H](N)[C@@H](O[C@H]2O[C@H](CN)[C@@H](O)[C@H](O)[C@H]2O)[C@H](O)[C@H]1O[C@H]1O[C@H](CO)[C@@H](O)[C@H](N)[C@H]1O
- Activity [1]: Active
- Activity [2]: inactive
- Activity [3]: Active
- Activity [43]: inactive
- Activity [4]: Active
- Activity [5]: Active
- Activity [7]: Active
- Activity [8]: Active
- Activity [9]: Active
- Activity [10]: Active
- Activity [11]: Active
- Activity [12]: inactive
- Activity [13]: Active
- Activity [44]: inactive
- Activity [14]: Active
- Activity [15]: Active
- Activity [17]: Active
- Activity [18]: Active
- Antimicrobial activity [19]: Active
- Activity [20]: Active
- Activity [21]: Active
- Activity [22]: Active
- Activity [23]: Active
- Activity [24]: Active
- Activity [25]: Active
- Activity [26]: Active
- Activity [27]: Active
- Activity [28]: Active
- Activity [29]: Active
- Activity [45]: Active
- Activity [30]: Active
- Activity [46]: Active
- Activity [31]: Active
- Activity [48]: Active
- Activity [33]: Active
- Activity [34]: Active
- Activity [35]: Active
- Activity [36]: Active
- Activity [37]: Active
- Activity [39]: Active
- Activity [41]: Active
- Activity [42]: Active
- Activity [47]: inactive
